Test [1] concerns HBEGF. Nature of the test: DNA microarray assay, expression of proliferative/growth-factor related genes. Format: cell-based. The settings on record: DMSO delivered retinol at 5 ppm; retinyl linoleate and lysophospholipid concentrate at a ratio of 1:0.4.
Test [2] has as its system mature murine skin. Nature of the test: Histology of punch biopsies of treated murine skin (epidermal thickening, proliferation, keratinocyte differentiation). Format: in vivo, mice. Particulars: for basal cell turn over / formation of normally-functioning supra basal granular keratinocytes: applied to the skin of mice, all trans retinoic acid 0.1%, all trans retinol 1.0%. The source says:
Photomicrographs of murine tissue samples treated according to methods of the present invention are presented the figures. Differing amounts of inter-laminar keratinocyte differentiation were observed. In some cases, there is intra-laminar disruption, in which stratum corneum (SC) and granular layer (GL) are separated, indicating little granular keratinocyte formation and/or suppression of one or both of granular keratinocyte extracellular desmosomal proteins and/or reduced production of laminar granules (proteases, lipids). This was not considered an artifact of the micro-tome blade.
More particularly, histological observations, including degree of “keratinocyte differentiation” are described by reference to photomicrographs of retired breeder mice obtained from Charles River Laboratories, Inc. (Wilmington, Mass.). An area of approximately one square inch was shaved. Test compositions (e.g., control=carrier vehicle with ingredient known to be irritating; test=same carrier and known irritant from control+phospholipid) were administered in accordance with methods of the inventions. Punch biopsies of full thickness skin and subcutaneous fat were taken as follows: skin was swabbed with an antiseptic and injected with a local anaesthetic; an incision was made, and a tissue specimen was removed and preserved in 10% neutral buffered formalin at a volume of approximately ten times that of the tissue). Excision sites were sutured. The preserved tissues samples were sent to Louisiana State University, School of Veterinary Medicine for processing and analysis. More particularly, tissue was processed in graded alcohol [70% (v/v) ethanol, 90% (v/v) ethanol, absolute ethanol] followed by graded xylene [[…], absolute xylene]. Next the processed tissue was placed in blocks/molds filled with paraffin wax liquid, in an orientation with the epidermis on top, with ice on top to hold the tissue in place. Wax blocks were cooled in ice and sectioned at a thickness of 5-15 μm using a microtome with disposable blade (Leica Microtome Model RM2255). Microtomed sections were placed on adhesive slides, incubated at 37° C. for 24 hours (i.e., on slide racks), and then stored in slide containers at room temperature until H&E staining is performed to visualize histological microstructures. All histological samples were micro photographed at 400× under normal light with standard digital equipment. These photos were transferred to PHOTOSHOP® computer imaging software from Adobe Systems Pvt. Ltd., in which measurements of epidermal thickness, SC thickness, granulation, layering were determined.

In test [3] the test system is FGF. Nature of the test: DNA microarray assay, expression of proliferative/growth-factor related genes. The settings on record: DMSO delivered retinol at 5 ppm; retinyl linoleate and lysophospholipid concentrate at a ratio of 1:0.4. The class given is cell-based.
The subject of test [4] is CSF2. The test is described as above. The class given is cell-based. Particulars: DMSO delivered retinol at 5 ppm; retinyl linoleate and lysophospholipid concentrate at a ratio of 1:0.4.
Test [5] has as its system TGF beta 1. The description is as above. Format: cell-based. Particulars: DMSO delivered retinol at 5 ppm; retinyl linoleate and lysophospholipid concentrate at a ratio of 1:0.4.
In test [6] the test system is TGF alpha. The test is described as above. The class given is cell-based. Particulars: DMSO delivered retinol at 5 ppm; retinyl linoleate and lysophospholipid concentrate at a ratio of 1:0.4.
The mark [7] stands for this setting: bioemulsion applied once daily over 4 consecutive days (retinyl phosphate 1%).
Setting [8] is: FIG. 7, bioemulsion with 1% retinyl linoleate.
The mark [9] stands for this setting: 1% in a bioemulsion applied once daily over 2 consecutive days.
[10] abbreviates: 1% in a bioemulsion applied once daily over three consecutive days.

Turning to `CC1=C(/C=C/C(C)=C/C=C/C(C)=C/CO)C(C)(C)CCC1` [DMSO Delivered Retinol, Retinol], the “HBEGF level of expression (change)” value in test [1] was −50%. In addition, in test [2], the “basal cell turn over” value was “stimulates” and the “formation of normally-functioning supra basal granular keratinocytes” value is “inhibits or suppresses”. Moreover, the “FGF level of expression (change)” value in test [3] is −50%. Besides, the “CSF2 level of expression (change)” value in test [4] is listed as −25%. Besides, the “TGF beta 1 level of expression (change)” value in test [5] was −50%. In test [6], the “TGF alpha level of expression (change)” value is given as “+200%”.

`CC1=C(/C=C/C(C)=C/C=C/C(C)=C/C(=O)O)C(C)(C)CCC1` [all trans retinoic acid, Retinoic acid]: in test [2], the “basal cell turn over” value is given as “stimulates” and the “formation of normally-functioning supra basal granular keratinocytes” value is listed as “inhibits or suppresses”.

On to `CC(C=CC1=C(C)CCCC1(C)C)=CC=CC(C)=CCOC(=O)CCC(=O)OCC=C(C)C=CC=C(C)C=CC1=C(C)CCCC1(C)C` [diretinyl succinate], for which, in test [2] (setting [7]), the keratinocyte differentiation result is “de minimis” and the proliferation result is listed as “De minimis”.

Regarding `CCCCC/C=C\C/C=C\CCCCCCCC(=O)OC/C=C(C)/C=C/C=C(C)/C=C/C1=C(C)CCCC1(C)C` [retinyl linoleate, Retinyl linoleate], in test [2] (setting [8]), the SC density result was “Increased”, the differentiation entry is “without significant differentiation” and the proliferation entry is recorded as “Increased”.

On to `CC1=C(/C=C/C(C)=C\C=C\C(C)=C\COP(=O)(O)O)C(C)(C)CCC1` [retinyl phosphate], for which, in test [2] (setting [7]), the keratinocyte differentiation result is listed as “de minimis” and the proliferation entry is on record as “De minimis”.

For Glyceryl diretinoate, in test [2] (setting [9]), the differentiation entry is given as “good” and the proliferation entry is “good”.

As to “Monoglyceryl retinoate [glyceryl mono retinoate]”, in test [2] (setting [9]), the differentiation result is “excellent” and the proliferation entry is “excellent”.

Regarding acetyl-n-phenylalanine retinoate, in test [2] (setting [10]), the differentiation result was “good” and the proliferation entry is given as “good”.

(Values after patent US11173103B1, “Retinoids and epidermal stimulants” (Owen Biosciences, Inc., priority 2017, dated 2021).)
